Measurements published in US20190314812A1, “SKIN SAMPLE CULTURE AND MEMBRANE TEST DEVICE” (The University of Dundee, priority 2016, published 2019).

Test system: NRF2
Assay: NQO1 mRNA levels in skin cultured in the device and treated with an NRF2 activator
Type: cell-based
Conditions: tissue treated on Day 0 versus Day 4 of culture in the 384-well device
Procedure: FIG. 8A is a perspective view of another embodiment of the present invention 341. […] The base has holes (not shown) which receive fixings 349. […] FIG. 8B is a schematic diagram which summarises an experiment in which skin cultured in the apparatus 341 was treated with a small molecule NRF2 activator (TBE-31) in order to evaluate the intracellular viability of the tissue. NRF2 transcriptionally regulates multiple genes that play both direct and indirect roles in activating intracellular anti-oxidative pathways.

C#C[C@]12C=C(C#N)C(=O)C=C1[C@@]1(C)C=C(C#N)C(=O)C(C)(C)[C@@H]1CC2 [TBE-31]
NRF2 response (NQO1 mRNA levels) in cultured skin: statistically the same
